Results from article PMC8080530, “Glucocorticoid receptor Thr524 phosphorylation by MINK1 induces interactions with 14-3-3 protein regulators” (The Journal of Biological Chemistry, 2021).
Non-standard residues stand in square brackets, D forms with d. Residues, ends and D or L forms follow the SMILES beside them. *: point of attachment. 6FAM = O=C1OC2(c3ccc(O)cc3Oc3cc(O)ccc32)c2cc(C(=O)*)ccc21; pT = C[C@@H](OP(=O)(O)O)[C@H](N)C(=O)O; pS = N[C@@H](COP(=O)(O)O)C(=O)O

These compounds were tested against T1, 14-3-3ζ (Homo sapiens, UniProt P63104) (assay: FP assay with GR phosphorylated peptides and 14-3-3ζ). Settings: FITC-labeled peptide 60 nM (monophosphorylated) or 10 nM (doubly phosphorylated) titrated with 14-3-3ζ, 30 min RT, Hill fit, triplicates; read-out: Kd with 14-3-3ζ by FP.
T1 construct: Full-length expression and purification of 14-3-3; made in house; host or cells: E. coli BL21 (DE3)STAR
T1 sequence (P63104 1-245): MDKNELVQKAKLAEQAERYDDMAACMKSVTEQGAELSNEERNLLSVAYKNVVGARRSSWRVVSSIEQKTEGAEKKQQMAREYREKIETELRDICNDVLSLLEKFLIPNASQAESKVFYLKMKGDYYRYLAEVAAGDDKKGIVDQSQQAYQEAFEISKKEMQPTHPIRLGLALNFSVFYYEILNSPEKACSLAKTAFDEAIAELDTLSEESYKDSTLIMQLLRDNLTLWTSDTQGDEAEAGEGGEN
Format: binding
In short: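 Fluorescence polarization (ex 485/em 520 nm) was read in triplicate after 30-min RT incubation. Binding data were fitted to a standard Hill equation and expressed in mP units. The dynamic range (ΔmP) is the difference between bound and free peptide signals.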

SMILES	Kd [nM]
CC(C)C[C@H](NC(=O)[C@H](CO)NC(=O)[C@@H]1CCCN1C(=O)[C@H](COP(=O)(O)O)NC(=O)[C@H](CO)NC(=O)[C@H](C)NC(=O)[C@H](CO)NC(=O)[C@@H](NC(=O)[C@H](CCCCN)NC(=O)[C@@H](N)C(C)C)C(C)C)C(=O)N[C@@H](C)C(=O)N[C@H](C(=O)N[C@@H](C)C(=O)O)C(C)C [GR_pS45] (H-VKVSAS[pS]PSLAVA-OH; N-terminus assumed)	> 150000
CSCC[C@H](NC(=O)[C@H](CO)NC(=O)[C@H](CC(C)C)NC(=O)[C@H](COP(=O)(O)O)NC(=O)[C@@H](NC(=O)[C@H](C)NC(=O)[C@H](CCCCN)NC(=O)[C@H](CO)NC(=O)[C@H](CC(C)C)NC(=O)[C@H](CC(=O)O)NC(=O)c1ccc2c(c1)C1(OC2=O)c2ccc(O)cc2Oc2cc(O)ccc21)C(C)C)C(=O)NCC(=O)N[C@@H](CC(C)C)C(=O)N[C@@H](Cc1ccc(O)cc1)C(=O)NCC(=O)NCC(=O)NCC(=O)NCC(=O)NCC(=O)N[C@@H](CC(N)=O)C(=O)N[C@@H](CC(C)C)C(=O)N[C@@H](CC(N)=O)C(=O)N[C@@H](CCCNC(=N)N)C(=O)N[C@@H](CO)C(=O)N[C@H](C(=O)N[C@@H](COP(=O)(O)O)C(=O)N[C@H](C(=O)N1CCC[C@H]1C(=O)N[C@@H](CCC(=O)O)C(=O)N[C@@H](CC(N)=O)C(=O)N1CCC[C@H]1C(=O)N[C@@H](CCCCN)C(=O)O)C(C)C)[C@@H](C)O [GR_pS83-pS134] (6FAM-DLSKAV[pS]LSMGLYGGGGGNLNRST[pS]VPENPK-OH; C-terminus assumed)	22000 ± 8000
CC[C@H](C)[C@H](NC(=O)[C@H](CCC(N)=O)NC(=O)CNC(=O)[C@@H](N)CCC(N)=O)C(=O)N[C@@H](CO)C(=O)N[C@@H](CC(C)C)C(=O)N[C@@H](COP(=O)(O)O)C(=O)N[C@@H](CO)C(=O)NCC(=O)N[C@@H](CCC(=O)O)C(=O)N[C@H](C(=O)N[C@@H](CC(=O)O)C(=O)N[C@@H](CC(C)C)C(=O)O)[C@@H](C)O [GR_pS113] (H-QGQISL[pS]SGETDL-OH; N-terminus and C-terminus assumed)	> 150000
CC[C@H](C)[C@H](NC(=O)[C@@H](NC(=O)[C@H](CCCCN)NC(=O)CNC(=O)CNC(=O)CNC(=O)CNC(=O)CNC(=O)[C@H](CCCCN)NC(=O)[C@@H]1CCCN1C(=O)[C@H](CC(N)=O)NC(=O)[C@H](CCC(=O)O)NC(=O)[C@@H]1CCCN1C(=O)[C@@H](NC(=O)[C@H](COP(=O)(O)O)NC(=O)[C@@H](NC(=O)[C@H](CO)NC(=O)[C@H](CCCNC(=N)N)NC(=O)[C@H](CC(N)=O)NC(=O)[C@H](CC(C)C)NC(=O)[C@H](CC(N)=O)NC(=O)c1ccc2c(c1)C1(OC2=O)c2ccc(O)cc2Oc2cc(O)ccc21)[C@@H](C)O)C(C)C)[C@@H](C)O)C(=O)N[C@H](C(=O)N1CCC[C@H]1C(=O)N[C@@H](C)C(=O)N[C@H](C(=O)N[C@@H](CC(C)C)C(=O)N1CCC[C@H]1C(=O)N[C@@H](CCC(N)=O)C(=O)N[C@@H](CC(C)C)C(=O)N[C@H](C(=O)N1CCC[C@H]1C(=O)O)[C@@H](C)O)[C@@H](C)OP(=O)(O)O)C(C)C [GR_pS134-pT524] (6FAM-NLNRST[pS]VPENPKGGGGGKTIVPA[pT]LPQLTP-OH; C-terminus assumed)	550
CC(C)C[C@H](N)C(=O)N[C@@H](CCC(=O)O)C(=O)N[C@@H](Cc1ccccc1)C(=O)N[C@@H](CO)C(=O)N[C@@H](CO)C(=O)NCC(=O)N[C@@H](COP(=O)(O)O)C(=O)N1CCC[C@H]1C(=O)NCC(=O)N[C@@H](CCCCN)C(=O)N[C@@H](CCC(=O)O)C(=O)N[C@H](C(=O)N[C@@H](CC(N)=O)C(=O)O)[C@@H](C)O [GR_pS203] (H-LEFSSG[pS]PGKETN-OH; N-terminus assumed)	> 150000
CC(C)C[C@H](NC(=O)[C@H](CC(=O)O)NC(=O)[C@H](CO)NC(=O)[C@H](CCCNC(=N)N)NC(=O)[C@H](Cc1c[nH]c2ccccc12)NC(=O)[C@@H]1CCCN1C(=O)[C@H](COP(=O)(O)O)NC(=O)[C@H](CCC(=O)O)NC(=O)[C@H](CC(N)=O)NC(=O)[C@@H](NC(=O)[C@H](CCC(=O)O)NC(=O)[C@H](CCCCN)NC(=O)CN)[C@@H](C)O)C(=O)O [GR_pS211] (H-GKETNE[pS]PWRSDL-OH; N-terminus assumed)	> 150000
CC(C)C[C@H](NC(=O)[C@H](CS)NC(=O)[C@H](CC(N)=O)NC(=O)[C@H](CCC(=O)O)NC(=O)[C@@H](N)CC(=O)O)C(=O)N[C@@H](CC(C)C)C(=O)N[C@@H](COP(=O)(O)O)C(=O)N1CCC[C@H]1C(=O)N[C@@H](CC(C)C)C(=O)N[C@@H](C)C(=O)NCC(=O)N[C@@H](CCC(=O)O)C(=O)N[C@@H](CC(=O)O)C(=O)O [GR_pS226] (H-DENCLL[pS]PLAGED-OH; N-terminus assumed)	> 150000
CC(C)C[C@H](NC(=O)[C@H](CC(C)C)NC(=O)[C@H](Cc1ccccc1)NC(=O)[C@H](COP(=O)(O)O)NC(=O)[C@H](CC(=O)O)NC(=O)[C@H](CC(=O)O)NC(=O)[C@H](CCC(=O)O)NC(=O)CNC(=O)[C@H](C)NC(=O)[C@@H](N)CC(C)C)C(=O)N[C@@H](CCC(=O)O)C(=O)NCC(=O)N[C@@H](CC(N)=O)C(=O)O [GR_pS234] (H-LAGEDD[pS]FLLEGN-OH; N-terminus assumed)	> 150000
CC(C)C[C@H](NC(=O)[C@@H](NC(=O)[C@@H](NC(=O)[C@H](CC(N)=O)NC(=O)[C@H](CO)NC(=O)[C@@H]1CCCN1C(=O)[C@H](COP(=O)(O)O)NC(=O)[C@H](CO)NC(=O)[C@H](CC(C)C)NC(=O)[C@@H](NC(=O)[C@H](CC(C)C)NC(=O)[C@H](CC(=O)O)NC(=O)CN)C(C)C)C(C)C)[C@@H](C)O)C(=O)O [GR_pS267] (H-GDLVLS[pS]PSNVTL-OH; N-terminus assumed)	> 150000
CSCC[C@H](N)C(=O)N[C@@H](CCCNC(=N)N)C(=O)N1CCC[C@H]1C(=O)N[C@@H](CC(=O)O)C(=O)N[C@H](C(=O)N[C@@H](CO)C(=O)N[C@@H](COP(=O)(O)O)C(=O)N1CCC[C@H]1C(=O)N1CCC[C@H]1C(=O)N[C@@H](CO)C(=O)N[C@@H](CO)C(=O)N[C@@H](CO)C(=O)N[C@@H](CO)C(=O)O)C(C)C [GR_pS404] (H-MRPDVS[pS]PPSSSS-OH; N-terminus assumed)	> 150000
CC(C)C[C@H](NC(=O)[C@H](CO)NC(=O)[C@H](CCC(=O)O)NC(=O)[C@H](CCCCN)NC(=O)[C@H](CO)NC(=O)[C@@H](N)CC(=O)O)C(=O)N[C@H](C(=O)N1CCC[C@H]1C(=O)NCC(=O)N[C@@H](CCCNC(=N)N)C(=O)N[C@@H](CCC(=O)O)C(=O)N[C@@H](CCC(=O)O)C(=O)N[C@@H](CC(N)=O)C(=O)O)[C@@H](C)OP(=O)(O)O [GR_pT8] (H-DSKESL[pT]PGREEN-OH; N-terminus assumed)	> 150000

Same assay, conditions: FP, doubly phosphorylated 31-mer peptides, triplicates; read-out: Kd with 14-3-3ζ (values in nM)

SMILES	Kd [nM]
CC[C@H](C)[C@H](NC(=O)[C@@H](NC(=O)[C@@H](N)CCCCN)[C@@H](C)O)C(=O)N[C@H](C(=O)N1CCC[C@H]1C(=O)N[C@@H](C)C(=O)N[C@@H](COP(=O)(O)O)C(=O)N[C@@H](CC(C)C)C(=O)N1CCC[C@H]1C(=O)N[C@@H](CCC(N)=O)C(=O)N[C@@H](CC(C)C)C(=O)N[C@H](C(=O)N1CCC[C@H]1C(=O)NCC(=O)NCC(=O)NCC(=O)NCC(=O)NCC(=O)N[C@@H](CCCNC(=N)N)C(=O)N[C@@H](CO)C(=O)N[C@@H](Cc1ccc(O)cc1)C(=O)N[C@@H](CCCNC(=N)N)C(=O)N[C@@H](CCC(N)=O)C(=O)N[C@@H](CO)C(=O)N[C@@H](COP(=O)(O)O)C(=O)N[C@@H](C)C(=O)N[C@@H](CC(N)=O)C(=O)N[C@@H](CC(C)C)C(=O)N[C@@H](CC(C)C)C(=O)N[C@@H](CS)C(=O)N[C@@H](Cc1ccccc1)C(=O)O)[C@@H](C)O)C(C)C [GR_pS524-pS617] (H-KTIVPA[pS]LPQLTPGGGGGRSYRQS[pS]ANLLCF-OH)	140

Same assay, conditions: ratio of Kd values

SMILES	fold decrease in binding affinity with 14-3-3ζ relative to GR_pT524-pS617
CSCC[C@H](NC(=O)[C@H](CO)NC(=O)[C@H](CC(C)C)NC(=O)[C@H](COP(=O)(O)O)NC(=O)[C@@H](NC(=O)[C@H](C)NC(=O)[C@H](CCCCN)NC(=O)[C@H](CO)NC(=O)[C@H](CC(C)C)NC(=O)[C@H](CC(=O)O)NC(=O)c1ccc2c(c1)C1(OC2=O)c2ccc(O)cc2Oc2cc(O)ccc21)C(C)C)C(=O)NCC(=O)N[C@@H](CC(C)C)C(=O)N[C@@H](Cc1ccc(O)cc1)C(=O)NCC(=O)NCC(=O)NCC(=O)NCC(=O)NCC(=O)N[C@@H](CC(N)=O)C(=O)N[C@@H](CC(C)C)C(=O)N[C@@H](CC(N)=O)C(=O)N[C@@H](CCCNC(=N)N)C(=O)N[C@@H](CO)C(=O)N[C@H](C(=O)N[C@@H](COP(=O)(O)O)C(=O)N[C@H](C(=O)N1CCC[C@H]1C(=O)N[C@@H](CCC(=O)O)C(=O)N[C@@H](CC(N)=O)C(=O)N1CCC[C@H]1C(=O)N[C@@H](CCCCN)C(=O)O)C(C)C)[C@@H](C)O [GR_pS83-pS134] (6FAM-DLSKAV[pS]LSMGLYGGGGGNLNRST[pS]VPENPK-OH; C-terminus assumed)	at least 15 fold

Same assay, conditions: read-out: PKd with 14-3-3ζ (converted)

SMILES	Kd [nM]
CC[C@H](C)[C@H](NC(=O)[C@@H](NC(=O)[C@@H](N)CCCCN)[C@@H](C)O)C(=O)N[C@H](C(=O)N1CCC[C@H]1C(=O)N[C@@H](C)C(=O)N[C@H](C(=O)N[C@@H](CC(C)C)C(=O)N1CCC[C@H]1C(=O)N[C@@H](CCC(N)=O)C(=O)N[C@@H](CC(C)C)C(=O)N[C@H](C(=O)N1CCC[C@H]1C(=O)NCC(=O)NCC(=O)NCC(=O)NCC(=O)NCC(=O)N[C@@H](CCCNC(=N)N)C(=O)N[C@@H](CO)C(=O)N[C@@H](C)C(=O)N[C@@H](CCCNC(=N)N)C(=O)N[C@@H](CCC(N)=O)C(=O)N[C@@H](CO)C(=O)N[C@@H](COP(=O)(O)O)C(=O)N[C@@H](C)C(=O)N[C@@H](CC(N)=O)C(=O)N[C@@H](CC(C)C)C(=O)N[C@@H](CC(C)C)C(=O)N[C@@H](CS)C(=O)N[C@@H](Cc1ccccc1)C(=O)O)[C@@H](C)O)[C@@H](C)OP(=O)(O)O)C(C)C [GR_Y613A] (H-KTIVPA[pT]LPQLTPGGGGGRSARQS[pS]ANLLCF-OH)	79.4
CC[C@H](C)[C@H](NC(=O)[C@@H](NC(=O)[C@@H](N)CCCCN)[C@@H](C)O)C(=O)N[C@H](C(=O)N1CCC[C@H]1C(=O)N[C@@H](C)C(=O)N[C@H](C(=O)N[C@@H](CC(C)C)C(=O)N1CCC[C@H]1C(=O)N[C@@H](CCC(N)=O)C(=O)N[C@@H](CC(C)C)C(=O)N[C@H](C(=O)N1CCC[C@H]1C(=O)NCC(=O)NCC(=O)NCC(=O)NCC(=O)NCC(=O)N[C@@H](CCCNC(=N)N)C(=O)N[C@@H](CO)C(=O)N[C@@H](Cc1ccc(O)cc1)C(=O)N[C@@H](CCCNC(=N)N)C(=O)N[C@@H](CCC(N)=O)C(=O)N[C@@H](CO)C(=O)N[C@@H](C)C(=O)N[C@@H](C)C(=O)N[C@@H](CC(N)=O)C(=O)N[C@@H](CC(C)C)C(=O)N[C@@H](CC(C)C)C(=O)N[C@@H](CS)C(=O)N[C@@H](Cc1ccccc1)C(=O)O)[C@@H](C)O)[C@@H](C)OP(=O)(O)O)C(C)C [GR_pT524-S617A] (H-KTIVPA[pT]LPQLTPGGGGGRSYRQSAANLLCF-OH)	1260
